Experimental data from patent US12606541B2, “PPARg modulators and methods of use” (Eisai R&D Management Co., Ltd., priority 2020, dated 2026).
Read-outs that look alike come from different tables or passages of the source.

Target: T1, His6-TEV-PPARγ-(234-505) (Homo sapiens, UniProt P37231)
T1 construct: The His6-TEV-PPARγ-(234-505) protein for assay was expressed and purified; TEV cleavage site (N); made in house
T1 sequence (P37231 234-505): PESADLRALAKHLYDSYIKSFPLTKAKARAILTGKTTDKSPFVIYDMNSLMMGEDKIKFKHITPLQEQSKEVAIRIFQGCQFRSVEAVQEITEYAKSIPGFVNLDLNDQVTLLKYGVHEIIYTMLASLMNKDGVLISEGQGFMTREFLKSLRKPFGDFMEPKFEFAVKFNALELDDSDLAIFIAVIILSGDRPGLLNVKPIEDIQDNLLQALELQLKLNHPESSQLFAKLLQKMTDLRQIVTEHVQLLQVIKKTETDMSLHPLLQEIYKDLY
Test: TR-FRET Assay to Measure Co-R Peptide Recruitment to PPARγ
Format: biochemical
Procedure, shortened: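 His-tagged PPARγ (or controls) was preincubated with compound for 20 minutes at room temperature, then 5 nM anti-His terbium antibody and 200 nM FITC-labeled SMRT-ID2 corepressor peptide (final) were added for a further hour. TR-FRET signal was normalized to percent response using 500 nM T0070907 and DMSO controls.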

[1] = Co-R peptide recruitment to PPARγ, read-out: TR-FRET AC50

| AC50 [1] [nM] | AC50 (Co-R peptide (SMRT-ID2) recruitment, top final concentration 20 μM, read-out: TR-FRET i-Ag, AC50) [nM] | SMILES |
| --- | --- | --- |
| > 1000 | – | COc1cc(-c2cc(C(=O)N3CCC(C(=O)NC4(c5ccccc5)CC4)CC3)n[nH]2)c(F)cn1 [1-[5-(5-fluoro-2-methoxypyridin-4-yl)-1H-pyrazole-3-carbonyl]-N-(1-phenylcyclopropyl)piperidine-4-carboxamide] |
| > 1000 | – | COc1cc(-c2cc(C(=O)N3CCC(C(=O)NC4COC(C)OC4)CC3)n[nH]2)c(F)cn1 (stereo not drawn) [1-[5-(5-fluoro-2-methoxypyridin-4-yl)-1H-pyrazole-3-carbonyl]-N-(2-methyl-1,3-dioxan-5-yl)piperidine-4-carboxamide] |
| > 1000 | – | COc1cc(-c2cc(C(=O)N3CCC(C(=O)NC4CCCCO4)CC3)n[nH]2)c(F)cn1 (stereo not drawn) [1-[5-(5-fluoro-2-methoxypyridin-4-yl)-1H-pyrazole-3-carbonyl]-N-(oxan-2-yl)piperidine-4-carboxamide] |
| > 1000 | – | O=C(NCCN1CCCC1)C1CCN(C(=O)c2cc(-c3ccncc3)[nH]n2)CC1 [1-[5-(pyridin-4-yl)-1H-pyrazole-3-carbonyl]-N-[2-(pyrrolidin-1-yl)ethyl]piperidine-4-carboxamide] |
| > 1000 | – | O=C(Nc1cccc(C(F)(F)F)c1)C1CCN(C(=O)c2cc(-c3ccncc3)[nH]n2)CC1 [1-[5-(pyridin-4-yl)-1H-pyrazole-3-carbonyl]-N-[3-(trifluoromethyl)phenyl]piperidine-4-carboxamide] |
| > 1000 | – | O=C(NCc1ccncc1)C1CCN(C(=O)c2cc(-c3ccncc3)[nH]n2)CC1 [1-[5-(pyridin-4-yl)-1H-pyrazole-3-carbonyl]-N-[(pyridin-4-yl)methyl]piperidine-4-carboxamide] |
| > 1000 | – | O=C(c1cc(-c2ccncc2)[nH]n1)N1CCC(C(=O)N2CCN(c3ccccc3)CC2)CC1 [1-phenyl-4-{1-[5-(pyridin-4-yl)-1H-pyrazole-3-carbonyl]piperidine-4-carbonyl}piperazine] |
| > 1000 | – | O=C(c1cc(-c2ccncc2)[nH]n1)N1CCC(C(=O)N2CCN(CC(F)(F)F)CC2)CC1 [1-{1-[5-(pyridin-4-yl)-1H-pyrazole-3-carbonyl]piperidine-4-carbonyl}-4-(2,2,2-trifluoroethyl)piperazine] |
| > 1000 | – | O=C(c1cc(-c2ccncc2)[nH]n1)N1CCC(C(=O)N2CCC23COC3)CC1 [1-{1-[5-(pyridin-4-yl)-1H-pyrazole-3-carbonyl]piperidine-4-carbonyl}-6-oxa-1-azaspiro[3.3]heptane] |
| > 1000 | – | CC1CCC(NC(=O)C2CCN(C(=O)c3cc(-c4ccnc(OC(F)F)c4)[nH]n3)CC2)CC1 (stereo not drawn) [1-{5-[2-(difluoromethoxy)pyridin-4-yl]-1H-pyrazole-3-carbonyl}-N-(4-methylcyclohexyl)piperidine-4-carboxamide] |
| > 1000 | – | CC1CCC(NC(=O)C2CCN(C(=O)c3cc(-c4ccnc(N(C)C)c4)[nH]n3)CC2)CC1 (stereo not drawn) [1-{5-[2-(dimethylamino)pyridin-4-yl]-1H-pyrazole-3-carbonyl}-N-(4-methylcyclohexyl)piperidine-4-carboxamide] |
| > 1000 | – | CNc1cc(-c2cc(C(=O)N3CCC(C(=O)NC4CCC(C)CC4)CC3)n[nH]2)ccn1 (stereo not drawn) [1-{5-[2-(methylamino)pyridin-4-yl]-1H-pyrazole-3-carbonyl}-N-(4-methylcyclohexyl)piperidine-4-carboxamide] |
| > 1000 | – | O=C(O)COc1cc(NC(=O)C2CCN(C(=O)c3cc(-c4ccncc4)[nH]n3)CC2)ccc1Cl [2-(2-chloro-5-{1-[5-(pyridin-4-yl)-1H-pyrazole-3-carbonyl]piperidine-4-amido}phenoxy)acetic acid] |
| > 1000 | – | COc1cc(-c2cc(C(=O)N3CCC4(C(=O)NCc5cccc(Cl)c5)CC34)n[nH]2)c(Cl)cn1 (stereo not drawn) [2-[5-(5-chloro-2-methoxypyridin-4-yl)-1H-pyrazole-3-carbonyl]-N-[(3-chlorophenyl)methyl]-2-azabicyclo[3.1.0]hexane-5-carboxamide] |
| > 1000 | – | COc1cc(-c2cc(C(=O)N3CCC(C(=O)NCc4cccc(Cl)c4)C4C3C4(F)F)n[nH]2)c(Cl)cn1 (stereo not drawn) [2-[5-(5-chloro-2-methoxypyridin-4-yl)-1H-pyrazole-3-carbonyl]-N-[(3-chlorophenyl)methyl]-7,7-difluoro-2-azabicyclo[4.1.0]heptane-5-carboxamide] |
| > 1000 | – | O=C(c1cc(-c2ccncc2)[nH]n1)N1CCC(C(=O)N2CCc3ccccc3C2)CC1 [2-{1-[5-(pyridin-4-yl)-1H-pyrazole-3-carbonyl]piperidine-4-carbonyl}-1,2,3,4-tetrahydroisoquinoline] |
| > 1000 | – | COc1cc(-c2cc(C(=O)N3CCC4(C(=O)NCc5cccc(Cl)c5)CC4C3)n[nH]2)c(Cl)cn1 (stereo not drawn) [3-[5-(5-chloro-2-methoxypyridin-4-yl)-1H-pyrazole-3-carbonyl]-N-[(3-chlorophenyl)methyl]-3-azabicyclo[4.1.0]heptane-6-carboxamide] |

| AC50 [1] [nM] | AC50 (Co-R peptide (SMRT-ID2) recruitment, top final concentration 20 μM, read-out: TR-FRET i-Ag, AC50) [nM] | SMILES |
| --- | --- | --- |
| > 1000 | – | O=C(c1cc(-c2ccncc2)[nH]n1)N1CCC(C(=O)N2CCOCC2)CC1 [4-{1-[5-(pyridin-4-yl)-1H-pyrazole-3-carbonyl]piperidine-4-carbonyl}morpholine] |
| > 1000 | – | CC1CCN(C(=O)C2CCN(C(=O)c3cc(-c4ccncc4)[nH]n3)CC2)CC1 [4-{3-[4-(4-methylpiperidine-1-carbonyl)piperidine-1-carbonyl]-1H-pyrazol-5-yl}pyridine] |
| > 1000 | – | O=C(c1cc(-c2ccncc2)[nH]n1)N1CCC(C(=O)N2CCC(c3ccccc3)CC2)CC1 [4-{3-[4-(4-phenylpiperidine-1-carbonyl)piperidine-1-carbonyl]-1H-pyrazol-5-yl}pyridine] |
| > 1000 | – | O=C(c1cc(-c2ccncc2)[nH]n1)N1CCC(C(=O)N2CCCCC2)CC1 [4-{3-[4-(piperidine-1-carbonyl)piperidine-1-carbonyl]-1H-pyrazol-5-yl}pyridine] |
| > 1000 | – | COc1cc(-c2cc(C(=O)N3CC4COCC(C3)C4C(=O)NCc3cccc(Cl)c3)n[nH]2)c(Cl)cn1 (stereo not drawn) [7-[5-(5-chloro-2-methoxypyridin-4-yl)-1H-pyrazole-3-carbonyl]-N-[(3-chlorophenyl)methyl]-3-oxa-7-azabicyclo[3.3.1]nonane-9-carboxamide] |
| > 1000 | – | O=C(c1cc(-c2ccncc2)[nH]n1)N1CCC(C(=O)N2CC[C@@H](O)C2)CC1 [(3R)-1-{1-[5-(pyridin-4-yl)-1H-pyrazole-3-carbonyl]piperidine-4-carbonyl}pyrrolidin-3-ol] |
| > 1000 | – | CN(C)[C@@H]1CCN(C(=O)C2CCN(C(=O)c3cc(-c4ccncc4)[nH]n3)CC2)C1 [(3R)—N,N-dimethyl-1-{1-[5-(pyridin-4-yl)-1H-pyrazole-3-carbonyl]piperidine-4-carbonyl}pyrrolidin-3-amine] |
| > 1000 | – | COc1cc(-c2cc(C(=O)N3CCC[C@@H](C(=O)NCc4cccc(Cl)c4)C3)n[nH]2)c(F)cn1 [(3R)—N-[(3-chlorophenyl)methyl]-1-[5-(5-fluoro-2-methoxypyridin-4-yl)-1H-pyrazole-3-carbonyl]piperidine-3-carboxamide] |
| > 1000 | – | CN(C)[C@H]1CCN(C(=O)C2CCN(C(=O)c3cc(-c4ccncc4)[nH]n3)CC2)C1 [(3S)—N,N-dimethyl-1-{1-[5-(pyridin-4-yl)-1H-pyrazole-3-carbonyl]piperidine-4-carbonyl}pyrrolidin-3-amine] |
| > 1000 | – | COc1cc(-c2cc(C(=O)N3CCC[C@H](C(=O)NCc4cccc(Cl)c4)C3)n[nH]2)c(F)cn1 [(3S)—N-[(3-chlorophenyl)methyl]-1-[5-(5-fluoro-2-methoxypyridin-4-yl)-1H-pyrazole-3-carbonyl]piperidine-3-carboxamide] |
| > 1000 | – | COc1cc(-c2cc(C(=O)N3CC[C@@H](C(=O)NC4CCS(=N)(=O)CC4)CC34CC4)n[nH]2)c(F)cn1 (stereo partly drawn) [(7R)-4-[5-(5-fluoro-2-methoxypyridin-4-yl)-1H-pyrazole-3-carbonyl]-N-(1-imino-1-oxo-1λ^6-thian-4-yl)-4-azaspiro[2.5]octane-7-carboxamide] |
| > 1000 | – | COc1cc(-c2cc(C(=O)N3CC[C@H](C(=O)N[C@@H]4CN(c5ccc(C)nc5)C[C@@H]4F)CC34CC4)n[nH]2)c(F)cn1 [(7S)—N-[(3R,4S)-4-fluoro-1-(6-methylpyridin-3-yl)pyrrolidin-3-yl]-4-[5-(5-fluoro-2-methoxypyridin-4-yl)-1H-pyrazole-3-carbonyl]-4-azaspiro[2.5]octane-7-carboxamide] |
| – | 342 | COc1cc(-c2cc(C(=O)N3CCC(C(=O)N[C@H]4CC[C@@H](C)CC4)CC3)n[nH]2)ccn1 [Example 107, 1-(5-(2-methoxypyridin-4-yl)-1H-pyrazole-3-carbonyl)-N-((1s,4s)-4-methylcyclohexyl)piperidine-4-carboxamide] |
| > 1000 | – | O=C(Nc1ncco1)C1CCN(C(=O)c2cc(-c3ccncc3)[nH]n2)CC1 [N-(1,3-oxazol-2-yl)-1-[5-(pyridin-4-yl)-1H-pyrazole-3-carbonyl]piperidine-4-carboxamide] |
| > 1000 | – | COc1cc(-c2cc(C(=O)N3CCC(C(=O)NC4CCN(C(C)=O)C4)CC3)n[nH]2)c(Cl)cn1 (stereo not drawn) [N-(1-acetylpyrrolidin-3-yl)-1-[5-(5-chloro-2-methoxypyridin-4-yl)-1H-pyrazole-3-carbonyl]piperidine-4-carboxamide] |
| > 1000 | – | COc1cc(-c2cc(C(=O)N3CCC(C(=O)NC4CCN(Cc5ccccc5)C4)CC3)n[nH]2)c(Cl)cn1 (stereo not drawn) [N-(1-benzylpyrrolidin-3-yl)-1-[5-(5-chloro-2-methoxypyridin-4-yl)-1H-pyrazole-3-carbonyl]piperidine-4-carboxamide] |
